≈ marks a conversion by molar mass, not a printed value. Read-outs that look alike come from different tables or passages of the source.
Experiments:
C. albicans [1] = assay: Minimum Inhibition Concentration (MIC), antifungal activity; assay type: cell-based
C. krusei = assay: as above; assay type: cell-based
C. glabrata = assay: as above; assay type: cell-based
C. tropicalis = assay: as above; assay type: cell-based
A. fumigatus 91 = assay: as above; assay type: cell-based
A. fumigatus 1163 = assay: as above; assay type: cell-based
A. fumigatus 1100 = assay: as above; assay type: cell-based
C. albicans [2] = assay: MIC with and without pre-complexation with ergosterol; assay type: cell-based; conditions: sponge pre-complexed with ergosterol
Description: Anderson, T. M. et al., Nat Chem Biol 2014, 10 (5), 400-6. […] Davis, S. A., et al., Nat Chem Biol 2015, 11 (7), 481-7. To test whether C2′epiAmB primarily kills cells via the same sterol sponge mechanism, the C2′epiAmB sponge was similarly pre-complexed with ergosterol (FIG. 9). […] Thus, C2′epiAmB similarly kills yeast primarily via sterol binding, and, by extension, the new compounds targeted in this application are expected to have a similar barrier to fungal resistance that has been observed for the past 50+ years with AmB.

[3] = Isothermal titration calorimetry (ITC) sterol binding; conditions: within the detection limits of ITC
Description: This key discovery opened a path to the rational development of a non-toxic AmB variant. To probe its predicted role in sterol binding, the hydroxyl group was synthetically deleted at the C2′ position on the mycosamine appendage. […] Consistent with the sterol sponge model, this derivative retained good activity against yeast but, most importantly, was nontoxic to human red blood cells and primary (hREC) (FIG. 2B).
A practical 11-step synthesis of C2′epiAmB using a frontier site-selective acylation method was developed (FIG. 4). Wilcock, B. C. et al., Nat Chem 2012, 4 (12), 996-1003; Uno, B. E. A synthesis enabled understanding of Amphotericin B leading to derivatives with improved therapeutic indices. University of Illinois at Urbana-Champaign, 2014. The sterol binding and cell killing activities was then determined.

human red blood cells = assay: Toxicity to human red blood cells; assay type: cell-based
primary hREC = assay: Toxicity to primary human renal epithelial cells; assay type: cell-based
yeast = assay: Activity against yeast / fungal cell killing; assay type: cell-based
[4] = Intravenous toxicity in rats (BUN, ALT/AST, mortality); assay type: in vivo; conditions: IV, 2, 10, and 17.5 mg/kg (highest dose tested)
Experimental: >100 mg of C2′epiAmB was prepared, formulated it as the corresponding deoxycholate complex, and evaluated this derivative head-to-head with AmB-deoxycholate for toxicity and efficacy in animal models. […] Alternatively, no elevations in BUN or ALT/AST and no mortality when rats were treated with IV injections of C2′epiAmB at doses of 2, 10, and 17.5 mg/kg (the highest dose that was tested) was observed.

[5] = Cmax after IV administration; assay type: in vivo, rats; conditions: C2′epiAmB at 17.5 mg/kg vs AmB at 1 mg/kg
[6] = system: Candida and Aspergillus clinical isolates; assay: In vitro antifungal activity, clinical isolates (Evotec); assay type: cell-based; conditions: many Candida and several Aspergillus strains
Description: (§1) In vitro antifungal activity of C2′epiAmB was compared with that of AmB against an extensive series of Candida and Aspergillus clinical isolates (FIG. 8A) at Evotec (Oxfordshire, UK). […] C2′epiAmB was also sent to the US national Fungus Testing Laboratory at UT-San Antonio for antifungal testing against an extended panel of especially challenging 40 Aspergillus clinical isolates, including azole-resistant A. fumigatus, A. flavus, and A. terreus (FIG. 8B). […] Recently, Steinbach and Burke directly compared the activity of AmB, AmBisome*, caspofungin, voriconazole, and C2′epiAmB against an even broader panel of clinically relevant invasive molds (FIG. 8C).

A. fumigatus = assay: In vitro antifungal activity, A. fumigatus strains (Evotec); assay type: cell-based
Description: as §1

[7] = system: 40 Aspergillus clinical isolates, including azole-resistant A. fumigatus, A. flavus, and A. terreus; assay: Antifungal testing, extended panel of 40 Aspergillus clinical isolates (Fungus Testing Laboratory, UT-San Antonio); assay type: cell-based
Description: as §1

[8] = system: clinically relevant invasive molds; assay: Antifungal activity, broader panel of clinically relevant invasive molds; assay type: cell-based; conditions: many strains, including a pan-azole resistant strain (F14196)
Description: as §1

C. albicans [9] = assay: Murine model of invasive candidiasis; assay type: in vivo, Neutropenic ICR/Swiss mice; conditions: single IP injection
Description: Andes, D. et al., Antimicrobial agents and chemotherapy 2001, 45 (3), 922-6. In fact, the PD parameter that best correlates with outcome is Cmax−/MIC. The same was subsequently observed in a pulmonary model of invasive aspergillosis. Wiederhold, N. P. et al., Antimicrobial agents and chemotherapy 2006, 50 (2), 469-73.

Structure (SMILES): C[C@@H]1[C@H](O)[C@@H](C)/C=C/C=C/C=C/C=C/C=C/C=C/C=C/[C@H](OC2O[C@H](C)[C@@H](O)[C@H](N)[C@@H]2O)CC2O[C@](O)(CC(O)CC(O)[C@H](O)CCC(O)CC(O)CC(=O)O[C@H]1C)CC(O)[C@H]2C(=O)O (stereo partly shown) [AmB, Amphotericin B]
- MIC (C. albicans [1]; Candida albicans): 0.5 µM (≈ 0.462 µg/mL)
- MIC (C. krusei; Pichia kudriavzevii): 2 µM (≈ 1.85 µg/mL)
- MIC (C. glabrata; Nakaseomyces glabratus): 0.5 µM (≈ 0.462 µg/mL)
- MIC (C. tropicalis; Candida tropicalis): 2 µM (≈ 1.85 µg/mL)
- MIC (A. fumigatus 91; Aspergillus fumigatus): 2 µM (≈ 1.85 µg/mL)
- MIC (A. fumigatus 1163; Aspergillus fumigatus): 2 µM (≈ 1.85 µg/mL)
- MIC (A. fumigatus 1100; Aspergillus fumigatus): 2 µM (≈ 1.85 µg/mL)
- change in potency upon ergosterol pre-complexation (C. albicans [2]): same reduction in potency

Structure (SMILES): COC(=O)[C@H]1[C@@H]2C[C@@H](O[C@@H]3O[C@H](C)[C@@H](O)[C@H](N)[C@H]3O)/C=C/C=C/C=C/C=C/C=C/C=C/C=C/[C@H](C)[C@@H](O)[C@@H](C)[C@H](C)OC(=O)C[C@H](O)C[C@H](O)CC[C@@H](O)[C@H](O)C[C@H](O)C[C@](O)(C[C@@H]1O)O2 [C2'epiAmBME]
- MIC (C. albicans [1]): 1 µM (≈ 0.938 µg/mL)
- MIC (C. krusei): 2 µM (≈ 1.88 µg/mL)
- MIC (C. glabrata): 4 µM (≈ 3.75 µg/mL)
- MIC (C. tropicalis): 2 µM (≈ 1.88 µg/mL)
- MIC (A. fumigatus 91): 4 µM (≈ 3.75 µg/mL)
- MIC (A. fumigatus 1163): 4 µM (≈ 3.75 µg/mL)
- MIC (A. fumigatus 1100): 4 µM (≈ 3.75 µg/mL)

Structure (SMILES): C[C@@H]1[C@H](O)[C@@H](C)/C=C/C=C/C=C/C=C/C=C/C=C/C=C/[C@H](O[C@@H]2O[C@H](C)[C@@H](O)[C@H](N)[C@H]2O)C[C@@H]2O[C@](O)(C[C@@H](O)C[C@@H](O)[C@H](O)CC[C@@H](O)C[C@@H](O)CC(=O)O[C@H]1C)C[C@H](O)[C@H]2C(=O)O [C2′epiAmB]
- MIC (C. albicans [1]): 4 µM (≈ 3.7 µg/mL)
- MIC (C. krusei): 4 µM (≈ 3.7 µg/mL)
- MIC (C. glabrata): 8 µM (≈ 7.39 µg/mL)
- MIC (C. tropicalis): 4 µM (≈ 3.7 µg/mL)
- MIC (A. fumigatus 91): >64 µM
- MIC (A. fumigatus 1163): >64 µM
- MIC (A. fumigatus 1100): 32 µM (≈ 29.6 µg/mL)
- cholesterol binding by ITC [3]: not (detectably) cholesterol
- ergosterol binding by ITC [3]: bind ergosterol
- toxicity to human red blood cells (human red blood cells): non-toxic
- toxicity to primary hREC (primary hREC): non-toxic
- activity against yeast / fungal cells (yeast): kill fungal
- ALT/AST [4]: no elevations
- Blood Urea Nitrogen (BUN) [4]: no elevations
- mortality [4]: no mortality
- Cmax relative to Cmax for AmB at 1 mg/kg [5]: > 16 fold
- in vitro antifungal activity [6]: good activity
- potency relative to AmB (less potent) (A. fumigatus; A. fumigatus strain AF91): > 32 times
- potency relative to AmB (less potent) (A. fumigatus; A. fumigatus strains AF293, A1163, and ATC204305): 4 fold
- average potency relative to AmB (less potent) ([7]; average across all 40 strains): 5.6 fold
- potency relative to AmB (less potent) ([7]; range over 40 Aspergillus clinical isolates): 2-16 times
- antifungal potency [8]: good antifungal potency
- change in potency upon ergosterol pre-complexation (C. albicans [2]): same reduction in potency
- fungal burden (C. albicans [9]; 16 mg/kg dose): outstanding reductions in fungal burden
- efficacy (C. albicans [9]; deoxycholate complex, 1, 4, 8, or 16 mg/kg): dose-dependent efficacy

From patent US20230000891A1, “HYBRID AMPHOTERICIN B DERIVATIVES WITH REDUCED TOXICITY” (The Board of Trustees of the University of Illinois, priority 2019, published 2023)
